Laboratory results reported in patent publication US20200262877A1, “ION CHANNEL-BINDING PEPTIDES AND METHODS OF USE THEREOF” (priority 2017, published 2020).

Test system: panel of 20 ion channels
Assay type: cell-based
Conditions: potassium channels of the panel; 0.2 or 20 μM; FIG. 2
Protocol: This example describes a method for assaying ion channel activity in cells.
Peptides were screened in duplicate at final concentrations of 20 μM and 200 nM, as determined by amino acid analysis, and diluted into HEPES buffered physiological saline (HBPS). HEK293 or CHO cells from the American Type Culture Collection (ATCC) were transfected with the appropriate ion channel before use. HEK293 cells were grown in Dulbecco's Modified Eagle Medium/Nutrient Mixture F-12, and CHO cells were cultured in Ham's F-12 media. All cultures were supplemented with 10% fetal bovine serum, 100 U/ml penicillin G, 100 μg/ml streptomycin sulfate, and the appropriate selection antibiotics. Prior to use, cells were washed twice with Hank's Balanced Salt Solution, and treated with Accutase cell detachment solution (Sigma-Aldrich). Cells were then washed. Peptides and controls were incubated with cells for at least five minutes.
Percent inhibition was defined as: (1-(Ipeptide/Icontrol))×100%).
Percent values were calculated using the following formula: % activation=(IPeptide/Icontrol)×100%, where IPeptide is the current produced by co-application a peptide with agonist, and Icontrol refers to the current produced by stimulation in control. Control used for each ion channel is the reference compound matched to a particular channel, as illustrated in TABLE 10 below.

Sequence	Activity on potassium channels
GSQIDTNVKCSGSSKCVKICIDRYNTRGAKCINGRCTCYP [SEQ ID NO: 20]	showed activity on various subsets of potassium channels
GSVVIGQRCYRSPDCYSACKKLVGKATGKCTNGRCDC [SEQ ID NO: 26]	showed activity on various subsets of potassium channels
